Results on 14 compounds are retold here after US20220289732A1, “HETEROCYCLIC WDR5 INHIBITORS AS ANTI-CANCER COMPOUNDS” (NOVARTIS AG, priority 2019, published 2022).

Structures are written as SMILES. pIC50: −log10 of the molar value.

In one experiment the target is WDR5 (Homo sapiens, UniProt P61964). As to the kind of experiment: WDR5 HTRF binding assay. The settings on record: read-out: (a) WDR5 HTRF Pep Val v.1[Inhibitor/IC50]Qualified AC50. In short, it runs like this:
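6 nM WDR5 and 20 nM biotin-MLL1 WIN peptide (3762-3773) were incubated with compound (12-point, 3-fold dilutions) in pH 7.5 Hepes/NaCl/DTT buffer for 20 min at rt. Streptavidin-APC plus anti-His-Eu were then added for 1 hr, with HTRF read at 665/615. IC50 was fit from control-normalized activity; the counter assay used 15 nM biotin-PEG-His peptide.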
Background: Time-resolved FRET reads energy transfer from a long-lived donor to a nearby acceptor.

The subject of the next experiment is MV4-11 cells. Briefly: MV4-11 6-day cell growth CTG (CellTiter-Glo) assay. The experiment is classed as cell-based. The settings on record: Homo sapiens, MV4-11, 144 h, 6 days, read-out: (c) MLL/WDR5 cell proliferation assay//MLL/WDR5 proliferation MV4:11 Qualified AC50. In short, it runs like this:
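Exponentially growing MV4-11 AML cells (RPMI 1640, 10% FBS) seeded at 300 cells/well with 12-point 1:3 compound dilutions, top final concentration 50 μM. Viability read by CellTiter-Glo luminescence after 6 days at 37° C; % inhibition vs DMSO-only wells fitted to dose-response for IC50.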

Experiment [1] concerns the target wild type MLL1 four-member complex (MLL1-4C) (Homo sapiens, UniProt P61964). As to the kind of experiment: MLL1 LC-MS assay (SAH production). The format is biochemical. The settings on record: read-out: (b) MLL LCMS Peptide Val.v.1 Qualified AC50. In short, it runs like this: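 MLL1-4C (30 nM final) was preincubated 20 min with compound (3-fold dilutions, 8 or 12 points) and SAM in Tris-HCl pH 8.0 buffer. H3K4me0 peptide (histone H3[1-21]-biotin) was then added, giving final 2.5 μM SAM and 10 μM substrate, and reactions ran 120 min at rt. After TFA/d4-SAH quench, SAH was quantified by LC-MS/MS and IC50 fitted from control-normalised activity.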

As to `CCOc1cc([C@H](C)N2CCc3c(cc(CCN(C)CC)cc3-c3cn(CCO)nc3C)C2=O)ncc1C#N` [Example 115, (S)-4-ethoxy-6-(1-(7-(2-(ethyl(methyl)amino)ethyl)-5-(1-(2-hydroxyethyl)-3-methyl-1H-pyrazol-4-yl)-1-oxo-3,4-dihydroisoquinolin-2(1H)-yl)ethyl)nicotinonitrile], the pIC50 at WDR5 is above 8.00. The AC50 (in the experiment on MV4-11 cells; in experiment [1]) was 10 to 1000 nM each time.

On to `CCOc1cc([C@H](C)N2CCc3c(cc(Cn4ccnc4C)cc3-c3nn(C)cc3C)C2=O)ncc1C#N` [Example 277], for which, at WDR5, the pIC50 is 6.00 to 8.00. Moreover, the AC50 (in the experiment with MV4-11 cells; in experiment [1]) was 10 to 1000 nM throughout.

Consider `CNc1nccn1Cc1cc2c(c(-c3cc(CO)cnc3Cl)c1)CCN(Cc1cc(F)cc(Cl)c1)C2=O` [Example 67, 5-(2-chloro-5-(hydroxymethyl)pyridin-3-yl)-2-(3-chloro-5-fluorobenzyl)-7-((2-(methylamino)-1H-imidazol-1-yl)methyl)-3,4-dihydroisoquinolin-1(2H)-one], for which, at WDR5, the pIC50 is 6.00 to 8.00. The AC50 (in the experiment on MV4-11 cells; in experiment [1]) was 10 to 1000 nM each time.

As for `CCOc1cc([C@H](C)N2CCc3c(cc(CCN(C)CC)cc3-c3cn(C)c(=O)c(F)c3C)C2=O)ncc1C#N` [Example 169, (S)-4-ethoxy-6-(1-(7-(2-(ethyl(methyl)amino)ethyl)-5-(5-fluoro-1,4-dimethyl-6-oxo-1,6-dihydropyridin-3-yl)-1-oxo-3,4-dihydroisoquinolin-2(1H)-yl)ethyl)nicotinonitrile], the pIC50 at WDR5 is above 8.00. Further, the AC50 (in the experiment on MV4-11 cells; in experiment [1]) was 10 to 1000 nM in each case.

Take `CCOc1cc(CN2CCc3c(cc(CCN(C)CC)cc3-c3cc(C)nnc3C)C2=O)ncc1C#N` [Example 189, 6-((5-(3,6-dimethylpyridazin-4-yl)-7-(2-(ethyl(methyl)amino)ethyl)-1-oxo-3,4-dihydroisoquinolin-2(1H)-yl)methyl)-4-ethoxynicotinonitrile]: the pIC50 on WDR5 is above 8.00. Moreover, the AC50 (with MV4-11 cells; in experiment [1]) was 10 to 1000 nM in each case.

Regarding `CNc1nccn1Cc1cc(-c2cc(C(C)O)cnc2Cl)c2ccn(Cc3ccc(F)c(OC)c3)c(=O)c2c1` (stereo not drawn) [Example 106, 5-(2-chloro-5-(1-hydroxyethyl)pyridin-3-yl)-2-(4-fluoro-3-methoxybenzyl)-7-((2-(methylamino)-1H-imidazol-1-yl)methyl)isoquinolin-1(2H)-one], the pIC50 at WDR5 was 6.00 to 8.00. Further, the AC50 (in the experiment on MV4-11 cells; in experiment [1]) was 10 to 1000 nM throughout.

For `CCOc1cc([C@H](C)N2CCc3c(cc(CCN(C)CCO)cc3-c3cn(C)c(=O)cc3Cl)C2=O)ncc1C#N` [Example 238], at WDR5, the pIC50 is above 8.00. For the same compound, the AC50 (with MV4-11 cells; in experiment [1]) was 10 to 1000 nM in each case.

Consider `CNc1nccn1Cc1cc2c(c(-c3cncnc3)c1)CCN([C@@H](C)c1cc(OC)c(F)cn1)C2=O` [Example 59, (S)-2-(1-(5-fluoro-4-methoxypyridin-2-yl)ethyl)-7-((2-(methylamino)-1H-imidazol-1-yl)methyl)-5-(pyrimidin-5-yl)-3,4-dihydroisoquinolin-1(2H)-one], for which the pIC50 at WDR5 is 6.00 to 8.00. Further, the AC50 (in the experiment on MV4-11 cells; in experiment [1]) was 10 to 1000 nM in each case.

As to `CCOc1cc(CN2CCc3c(cc(CCN(C)CC)cc3-c3ccc(F)nc3C)C2=O)ncc1C#N` [Example 130, 4-ethoxy-6-((7-(2-(ethyl(methyl)amino)ethyl)-5-(6-fluoro-2-methylpyridin-3-yl)-1-oxo-3,4-dihydroisoquinolin-2(1H)-yl)methyl)nicotinonitrile], the pIC50 on WDR5 is above 8.00. In addition, the AC50 (with MV4-11 cells; in experiment [1]) was 10 to 1000 nM in each case.

For `CNc1nccn1Cc1cc(CN(C)C)c2c(c1)C(=O)N([C@@H](C)c1cnc(F)c(OC)c1)CC2` [Example 29, (S)-5-((dimethylamino)methyl)-2-(1-(6-fluoro-5-methoxypyridin-3-yl)ethyl)-7-((2-(methylamino)-1H-imidazol-1-yl)methyl)-3,4-dihydroisoquinolin-1(2H)-one], the pIC50 at WDR5 is 6.00 to 8.00. In addition, the AC50 (with MV4-11 cells; in experiment [1]) was 10 to 1000 nM each time.

Regarding `CCOc1cc([C@H](C)N2CCc3c(cc(CCN(C)CC)cc3-c3cn(CC)nc3C(F)F)C2=O)ncc1C#N` [Example 165, (S)-6-(1-(5-(3-(difluoromethyl)-1-ethyl-1H-pyrazol-4-yl)-7-(2-(ethyl(methyl)amino)ethyl)-1-oxo-3,4-dihydroisoquinolin-2(1H)-yl)ethyl)-4-ethoxynicotinonitrile], at WDR5, the pIC50 is above 8.00. Moreover, the AC50 (in the experiment with MV4-11 cells; in experiment [1]) was 10 to 1000 nM in each case.

For `CNc1nccn1Cc1cc2c(c(-c3cn(C)nc3C(F)(F)F)c1)CCN(Cc1cc(OC)c(F)cn1)C2=O` [Example 64, 2-((5-fluoro-4-methoxypyridin-2-yl)methyl)-5-(1-methyl-3-(trifluoromethyl)-1H-pyrazol-4-yl)-7-((2-(methylamino)-1H-imidazol-1-yl)methyl)-3,4-dihydroisoquinolin-1(2H)-one], the pIC50 at WDR5 is 6.00 to 8.00. For the same compound, the AC50 (in the experiment with MV4-11 cells; in experiment [1]) was 10 to 1000 nM each time.

Regarding `CCOc1cc([C@H](C)N2CCc3c(cc(CCN(C)CC)cc3-c3cccnc3C(F)F)C2=O)ncc1C#N` [Example 119, (S)-6-(1-(5-(2-(difluoromethyl)pyridin-3-yl)-7-(2-(ethyl(methyl)amino)ethyl)-1-oxo-3,4-dihydroisoquinolin-2(1H)-yl)ethyl)-4-ethoxynicotinonitrile], the pIC50 on WDR5 was above 8.00. The AC50 (with MV4-11 cells; in experiment [1]) was 10 to 1000 nM each time.

For the compound `CCOc1cc([C@@H](C)N2CCc3c(cc(CCN(C)CC)cc3-c3ccc(N)nc3C(F)(F)F)C2=O)ncc1C#N` [Example 199, (R)-6-(1-(5-(6-amino-2-(trifluoromethyl)pyridin-3-yl)-7-(2-(ethyl(methyl)amino)ethyl)-1-oxo-3,4-dihydroisoquinolin-2(1H)-yl)ethyl)-4-ethoxynicotinonitrile], at WDR5, the pIC50 was 6.00 to 8.00. The AC50 (in the experiment on MV4-11 cells; in experiment [1]) was 10 to 1000 nM throughout.
